In ChEMBL document CHEMBL1201862, “PubChem BioAssay data set” (2004):
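Five concentrations, 48 hours, 96-well plates. GI50 = concentration required for 50% inhibition of growth.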 Activity calls are given as the source filed them. Cut-off read from the data, not from the text of the source: active = GI50 up to about 1.1 µM and inactive = higher.

How the values were obtained:
Experiment in all cases: NCI-60 cell line screen, 48 h
[1] = system: HOP-92
[2] = system: LOX IMVI
[3] = system: A498
[4] = system: HCT-116
[5] = system: ACHN
[6] = system: SN12C
[7] = system: UACC-62
[8] = system: MOLT-4
[9] = system: U-251
[10] = system: NCI-H460
[11] = system: SK-MEL-28
[12] = system: SF-539
[13] = system: IGROV-1
[14] = system: HL-60
[15] = system: RPMI-8226
[16] = system: OVCAR-4
[17] = system: K562
[18] = system: SK-MEL-2
[19] = system: SF-268
[20] = system: SK-MEL-5

Measured: GI50

CC(=O)OCC1OC(OCCCCCCO)C(OC(C)=O)C(OC(C)=O)C1OC(C)=O (centres undefined)
inactive: [1] > 100 µM | [2] > 100 µM | [3] > 100 µM | [4] > 100 µM | [5] > 100 µM | [6] > 100 µM | [7] > 100 µM | [8] > 100 µM | [9] > 100 µM | [10] > 100 µM | [11] > 100 µM | [12] > 100 µM | [13] > 100 µM | [14] > 100 µM | [15] > 100 µM | [16] > 100 µM | [17] > 100 µM | [18] > 100 µM | [19] > 100 µM

Clc1cc2c(c(CSC3=NCN(CC4CC4)CN3)c1)OCOC2
inactive: [1] 37.6 µM | [2] 25.1 µM | [3] 20.7 µM | [4] 18.5 µM | [5] 17.6 µM | [6] 28.6 µM | [7] 17.9 µM | [8] 22.5 µM | [9] 19.6 µM | [10] 17.8 µM | [11] 19.8 µM | [12] 20.3 µM | [13] 35.9 µM | [14] 13.6 µM | [15] 12.1 µM | [20] 17.7 µM | [16] 34.3 µM | [17] 28.1 µM | [18] 19.1 µM | [19] 27.3 µM

O=C(O)Cc1cccc2c1Oc1ccccc1S2
inactive: [1] > 100 µM | [2] > 100 µM | [3] > 100 µM | [4] > 100 µM | [5] > 100 µM | [6] > 100 µM | [7] > 100 µM | [8] > 100 µM | [9] > 100 µM | [10] > 100 µM | [11] > 100 µM | [12] > 100 µM | [13] > 100 µM | [14] > 100 µM | [15] > 100 µM | [20] > 100 µM | [16] > 100 µM | [17] > 100 µM | [18] > 100 µM | [19] > 100 µM

C[C@]12CCC(=O)C(O)=C1CC[C@@H]1[C@@H]2CC[C@]2(C)C(=O)CC[C@@H]12 [FORMESTANE]
inactive: [1] > 81.8 µM | [2] > 100 µM | [3] > 84.5 µM | [4] > 93.1 µM | [5] > 100 µM | [6] > 100 µM | [7] > 100 µM | [8] > 75.9 µM | [9] > 100 µM | [10] > 100 µM | [11] > 100 µM | [12] > 100 µM | [13] > 100 µM | [14] > 80.9 µM | [15] > 100 µM | [20] > 93.5 µM | [16] > 100 µM | [17] > 89.9 µM | [18] > 100 µM | [19] > 100 µM
